From paper PMC8838521, “Antimicrobial, Cytotoxic and Mutagenic Activity of Gemini QAS Derivatives of 1,4:3,6-Dianhydro-L-iditol” (Molecules, 2022)
Where a name gives a salt, the structure may show the parent alone. Read-outs that look alike come from different tables or passages of the source.

How the values were obtained:
[1] = test system: Candida albicans ATCC 10231; assay: Antimicrobial activity, microdilution MIC, C. albicans; assay type: cell-based; conditions: Candida albicans, ATCC10231, 24 h, read-out: MIC C. albicans ATCC 10231, MIC90, 24 h, RPMI
Description: (§1) The antimicrobial potential of the tested agents was evaluated against two reference strains of bacteria: Staphylococcus aureus ATCC 25923 and Escherichia coli K12, two reference strains of pathogenic yeasts, Candida albicans ATCC10231 and Candida glabrata DSMZ11226, as well as 20 strains of clinical isolates of S. aureus collected from patients with skin and soft tissue infections (n = 8) and strains derived from subclinical bovine mastitis milk samples (n = 12). Four of these strains, two isolated from human infections and two isolated from bovine mastitis, were classified as MRSA (Methicillin-resistant Staphylococcus aureus). All of them were mecA positive and their methicillin resistance was confirmed with the disc diffusion assay. The remaining 16 strains were MSSA (Methicillin-sensitive Staphylococcus aureus). The assays were performed using a serial, two-fold dilution method in 96-well microtiter plates under conditions recommended by the Clinical and Laboratory Standards Institute (CLSI, Pittsburgh, PA, USA). The aim of this procedure was the determination of the MIC parameter (Minimum Inhibitory Concentration)—the minimum concentration of a tested agent capable to inhibit the growth of a specified strain of microorganism. The agents were solubilized in deionized, sterile water to a final concentration of […]. Subsequently, solutions were mixed (1:1 (v/v)) with 2 × concentrated liquid medium, Mueller-Hinton Broth 2—cation adjusted (MHB2) for evaluation of antibacterial activity and RPMI in the case of evaluation of the antifungal activity. […] Subsequently, the solutions were mixed with MHB2 or RPMI medium to get the final concentration of 8.192 mg/mL (8192 µg/mL). In the next step, the serial, two-fold dilutions of the tested agents (over the range of concentrations from 8192 to 8 µg/mL for reference strains of bacteria and yeasts and from 512 to 1.0 µg/mL for clinical isolates of S. aureus) were prepared in 96-well microtitration plates in the final volume of 100 μL of the appropriate medium.
(§2) The pure cultures of yeast strains were grown on the Sabouraud Dextrose Agar (SDA) for 18–24 h at 37 °C. Suspensions of the microorganisms were prepared by taking one loop of pure culture into sterile water and adjusting optical density to 0.1 at 660 nm and further 50-fold dilution in RPMI 1640 medium resulting in cells concentration of approximate 2 × 10^4 CFU/mL. One hundred μL of that suspension was inoculated to the wells of the microtitration plate containing appropriate dilutions of the agents. The positive growth control of each strain (both bacteria and yeasts) was performed in the wells without the tested substances. The negative control containing only the media was included in each assay. Microtiter plates were incubated at 37 °C for 24 h. Following the incubation period, determination of the MIC values of the tested agents was carried out by measuring the absorbance at 531 nm using a Victor^3 microplate reader (Perkin Elmer, Inc., Waltham, MA, USA). The lowest concentration of the agent causing inhibition of growth equal to or higher than 90% (MIC90) of growth control was taken as the MIC value. Each test was repeated three times.

[2] = test system: human keratinocytes (HaCaT cell line); assay: Cytotoxicity, MTT assay; assay type: cell-based
Description: To assess the cytotoxicity of QAS (IC50), the MTT assay on 96-well polystyrene plates was performed for human keratinocytes (HaCaT, Elabscience Biotechnology Inc., Houston, Texas, USA). The assay utilizes colorimetric determination of the cell metabolic activity and the color intensity reflects the number of live cells that can be measured spectrophotometrically. The cell line was cultured in a Dulbecco’s modified Eagle Medium (Invitrogen) supplemented with 10% fetal bovine serum (Sigma Aldrich) (v/v), 100 units/mL of penicillin, 100 μg/mL of streptomycin, and 2 mM L-glutamine and was stored at 37 °C in a humidified 5% CO2 incubator. Briefly, a day after plating of 500 cells per well, a series of concentrations (0.5–200 μg/mL) of the test compounds was applied. DMSO was added to the control cells at a final concentration of 1.0% (v/v), which was related to the maximal concentration of the solvent compounds used in the experiment. After 24 h of incubation with the QAS at 37 °C (humidified 5% CO2 incubator), a medium containing 1 mg/mL of MTT (3-(4,5-dimethylthiazol-2-yl)-2,5-diphenyltetrazolium bromide) was added to the wells up to a final concentration of 0.5 mg/mL. Subsequently, the plates were incubated at 37 °C for 4 h. Then, the medium was removed by suction, and the formazan product was solubilized with DMSO. The background absorbance at 630 nm was subtracted from that at 570 nm for each well (Epoch, BioTek Instruments, Winooski, VT, USA). Six replicates were conducted for each concentration. All experiments were repeated at least twice and the resulting IC50 values were calculated with GraFit 7 software (v. 7.0, Erithacus, Berkley, CA, USA).

[3] = test system: Escherichia coli K12; assay: Antimicrobial activity, microdilution MIC, E. coli; assay type: cell-based
Description: as §1
(§3) The pure bacterial cultures of (both the reference and clinical strains) were grown on the Mueller-Hinton Agar (MHA) for 18–24 h at 37 °C. A small amount of the biomass of the culture of each strain of microorganisms was suspended in the sterile PBS (phosphate buffered saline, pH 7.4 at 25 °C, purchased from Sigma) solution to get an optical density OD600 = 0.13 (equal to the cells concentration approximately 1 × 10^8 CFU/mL). The obtained suspensions of the cells were next diluted 1:100 (v/v) in the MHB2 medium. One hundred µL of the cells’ suspension was finally loaded into the wells of plates prepared in advance, which contained 100 µL of two-fold dilutions of the tested agents (the final concentration of the bacterial cells in all wells was approximately 5 × 10^5 CFU/mL).
as §2, with “times. […]” for “times.”

[4] = Solubility observed during assays; assay type: physicochemical; conditions: observed during antimicrobial assays; DMSO used for solubilisation
[5] = test system: Candida glabrata DSMZ 11226; assay: Antimicrobial activity, microdilution MIC, C. glabrata; assay type: cell-based
Description: as §1, §2

[6] = test system: Salmonella typhimurium TA98 strain; conditions: TA98, no metabolic activation
Description: A Salmonella mutagenicity test was performed with Salmonella typhimurium TA98 strain (Xenometrics AG, Allschwil, Switzerland) without metabolic activation, following the procedure by Mortelmans and Zeiger [52], with modifications reported Golunski et al. [53] […] Subsequently, the mixture was centrifuged, bacterial pellet washed with 0.75% NaCl and resuspended in 300 µL of 0.75% NaCl solution containing 0.1 µmol each of histidine and biotin, and it was then spread on a glucose minimal (GM) plate. […] All experiments were performed in triplicate. The anticancer drug doxorubicin at 90 ng/plate with known mutagenic effect towards S. typhimurium TA98 was used as a positive control.

[7] = test system: Staphylococcus aureus ATCC 25923; assay: Antimicrobial activity, microdilution MIC, S. aureus reference strain; assay type: cell-based
Description: as §1, §3
as §2, with “times. […]” for “times.”

[8] = test system: Candida albicans ATCC 10231; design: method as in PMID 16459482; conditions: strain not stated; cited from earlier work
[9] = test system: Escherichia coli K12; conditions: strain not stated; cited from earlier work
[10] = test system: Staphylococcus aureus ATCC 25923; design: method as in PMID 23669380; conditions: strain not stated; cited from earlier work

For `NC(=O)c1ccc[n+](C2COC3C2OCC3[n+]2cccc(C(N)=O)c2)c1` (as salt: methanesulfonate) [QAS 5, N,N’-(1,4:3,6-Dianhydro-2,5-dideoxy-L-iditol-2,5-diyl)-bis[(3-carboxamide)pyridinium] Ditrifluoromethanesulfonate], the melting point was 63.5 to 65.2 °C.

`Cn1cc[n+](C2COC3C2OCC3[n+]2ccn(C)c2)c1` (as salt: methanesulfonate) [QAS 6, N,N’-(1,4:3,6-Dianhydro-2,5-dideoxy-L-iditol-2,5-diyl)-bis(N-methylimidazolium) Ditrifluoromethanesulfonate] showed a melting point of 90.5 to 93.7 °C.

Work on `CCCCCC[N+](C)(C)C1COC2C1OCC2[N+](C)(C)CCCCCC` (as salt: methanesulfonate) [QAS 8, N,N’-(1,4:3,6-Dianhydro-2,5-dideoxy-L-iditol-2,5-diyl)-bis(N,N-dimethyl-N-hexylammonium) Ditrifluoromethanesulfonate] yielded a melting point of 222.8 to 224 °C.

For `CCCCCCCCCC[N+](C)(C)C1COC2C1OCC2[N+](C)(C)CCCCCCCCCC` (as salt: methanesulfonate) [QAS 10, N,N’-(1,4:3,6-Dianhydro-2,5-dideoxy-L-iditol-2,5-diyl)-bis(N,N-dimethyl-N-decylammonium) Ditrifluoromethanesulfonate], the melting point was 191 °C (dec.).

In the case of `CCCCCC[N+](C)(C)C1COC2C1OCC2[N+](C)(C)CCCCCC` [QAS 8, N,N’-(1,4:3,6-Dianhydro-2,5-dideoxy-L-iditol-2,5-diyl)-bis(N,N-dimethyl-N-hexylammonium) Ditrifluoromethanesulfonate], the MIC [1] is reported as over 4000 µg/mL, the IC50 ([2]; Homo sapiens, HaCaT, 24 h, read-out: HaCaT IC50) is reported as over 100 µg/mL and the MIC ([3]; Escherichia coli, K12, 24 h, read-out: MIC E. coli K12, MIC90, 24 h, MHB2) is reported as over 4000 µg/mL. The “MIC E. coli K12” value ([3]; MIC90, 24 h, MHB2) was over 4096 µg/mL, the Solubility in water [4] was “lower solubility in water” and the “MIC C. glabrata DSMZ 11226” value ([5]; MIC90, 24 h, RPMI) was 2048 µg/mL. For the same compound, the MIC ([5]; Nakaseomyces glabratus, DSMZ11226, 24 h, read-out: MIC C. glabrata DSMZ 11226, MIC90, 24 h, RPMI) was over 4000 µg/mL, the “Number of Revertants” value ([6]; concentration 4 µg/plate) was 14.7 ± 5.1 and the “Number of Revertants” value ([6]; concentration 20 µg/plate) was 15.7 ± 1.5. For the same compound, the “Number of Revertants” value ([6]; concentration 100 µg/plate) was 11.0 ± 7.5, the “Number of Revertants” value ([6]; concentration 500 µg/plate) was 12.3 ± 3.5 and the “Number of Revertants” value ([6]; concentration 2000 µg/plate) was 12.7 ± 3.2. The “MIC S. aureus ATCC 25923” value ([7]; MIC90, 24 h, MHB2) was 2048 µg/mL and the MIC ([7]; Staphylococcus aureus, ATCC25923, 24 h, read-out: MIC S. aureus ATCC 25923, MIC90, 24 h, MHB2) was over 4000 µg/mL.

For Benzalkonium chloride [BAC], the “HaCaT IC50” value ([2]; MTT, 24 h incubation) is given as 1.1 ± 1.4 µg/mL, the “MIC against C. albicans” value [8] is given as 8 µg/mL and the “MIC against E. coli” value [9] is given as 13 µg/mL. The “MIC against S. aureus” value [10] was 2 µg/mL.
